Measured values: patent US20210087206A1, “MACROCYCLIC KINASE INHIBITORS AND THEIR USE” (TURNING POINT THERAPEUTICS, INC., priority 2017, published 2021)

Tests used:
BaF3 EML4-ALK = target: T1, BaF3 EML4-ALK (Homo sapiens, UniProt Q9UM73); test: Cell proliferation assay (CellTiter-Glo); format: cell-based; details: anti-cell proliferation, 72 hours
T1 construct: The EML4-ALK gene (variant 1) was synthesized at GenScript and cloned into pCDH-CMV-MCS-EF1-Puro plasmid (System Biosciences, Inc); fused on or other part: EML4 N-terminal part (variant 1: exons 1-13, with the coiled-coil that oligomerises the fusion) fused to the intracellular part of ALK, which contains the kinase domain; Q9HC35 (Echinoderm microtubule-associated protein-like 4)
How it was run: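 Ba/F3 cells were lentivirally transduced with EML4-ALK variant 1 and selected for puromycin resistance and IL-3-independent growth. Proliferation was measured by CellTiter-Glo ATP luminescence to give IC50.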

KG-1 cell (OP2-FGFR1) = test: Cell proliferation assay (CellTiter-Glo); format: cell-based; details: Homo sapiens, anti-cell proliferation, 72 hours
How it was run: (§1)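 Cells seeded 24 h, then exposed to compounds for 72 h at 37° C., 5% CO2. Proliferation read by CellTiter-Glo luminescent ATP detection; IC50 from dose-response fits.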

KM12 (TPM3-TRKA) = test: Cell proliferation assay (CellTiter-Glo); format: cell-based; details: Homo sapiens, anti-cell proliferation, 72 hours
How it was run: as §1

FGFR2 = target: T2, FGFR2 (Homo sapiens, UniProt P21802); test: Biochemical kinase assay (Reaction Biology, 33P ATP); details: 10 μM ATP
T2 construct: purchased Reaction Biology Corporation
Procedure: (§2) Biochemical Kinase Assay Method
(§3) The biochemical kinase assay was performed at Reaction Biology Corporation (www.reactionbiology.com, Malvern, Pa.) following the procedures described in the reference (Anastassiadis T, et al Nat Biotechnol. 2011, 29, 1039). Specific kinase/substrate pairs along with required cofactors were prepared in reaction buffer; 20 mM Hepes pH 7.5, 10 mM MgC2, 1 mM EGTA, 0.02% Brij35, 0.02 mg/ml BSA, 0.1 mM Na3VO4, 2 mM DTT, 1% DMSO. Compounds were delivered into the reaction, followed ˜20 min later by addition of a mixture of ATP (Sigma, St. Louis Mo.) and ^33P ATP (Perkin Elmer, Waltham Mass.) to a final concentration of 10 μM. Reactions were carried out at room temperature for 120 min, followed by spotting of the reactions onto P81 ion exchange filter paper (Whatman Inc., Piscataway, N.J.). Unbound phosphate was removed by extensive washing of filters in 0.75% phosphoric acid. […] IC50 values and curve fits were obtained using Prism (GraphPad Software).

ALK (G1202R) = target: T3, ALK (G1202R) (Homo sapiens, UniProt Q9UM73, G1202R); test: as above; details: 10 μM ATP
T3 construct: purchased Reaction Biology Corporation
Procedure: as §2, §3

ALK (L1196M) = target: T4, ALK (L1196M) (Homo sapiens, UniProt Q9UM73, L1196M); test: as above; details: 10 μM ATP
T4 construct: purchased Reaction Biology Corporation
Procedure: as §2, §3

FGFR3 = target: T5, FGFR3 (Homo sapiens, UniProt P22607); test: as above; details: 10 μM ATP
T5 construct: purchased Reaction Biology Corporation
Procedure: as §2, §3

ALK = target: T6, ALK (Homo sapiens, UniProt Q9UM73); test: as above; details: 10 μM ATP
T6 construct: purchased Reaction Biology Corporation
Procedure: as §2, §3

FGFR1 = target: T7, FGFR1 (Homo sapiens, UniProt P11362); test: as above; details: 10 μM ATP
T7 construct: purchased Reaction Biology Corporation
Procedure: as §2, §3

FGFR1(V561M) = target: T8, FGFR1(V561M) (Homo sapiens, UniProt P11362, V561M); test: as above; details: 10 μM ATP
T8 construct: purchased Reaction Biology Corporation
Procedure: as §2, §3

ROS1 (G2032R) = target: T9, ROS1 (G2032R) (Homo sapiens, UniProt P08922, G2032R); test: as above; details: 10 μM ATP
T9 construct: purchased Reaction Biology Corporation
Procedure: as §2, §3

ROS1 = target: T10, ROS1 (Homo sapiens, UniProt P08922); test: as above; details: 10 μM ATP
T10 construct: purchased Reaction Biology Corporation
Procedure: as §2, §3

FGFR4 = target: T11, FGFR4 (Homo sapiens, UniProt P22455); test: as above; details: 10 μM ATP
T11 construct: purchased Reaction Biology Corporation
Procedure: as §2, §3

[1] = amide bond; 13-membered ring; 3 steps

T1 sequence (Q9UM73 whole entry, stated change not applied, the tested form may be a part): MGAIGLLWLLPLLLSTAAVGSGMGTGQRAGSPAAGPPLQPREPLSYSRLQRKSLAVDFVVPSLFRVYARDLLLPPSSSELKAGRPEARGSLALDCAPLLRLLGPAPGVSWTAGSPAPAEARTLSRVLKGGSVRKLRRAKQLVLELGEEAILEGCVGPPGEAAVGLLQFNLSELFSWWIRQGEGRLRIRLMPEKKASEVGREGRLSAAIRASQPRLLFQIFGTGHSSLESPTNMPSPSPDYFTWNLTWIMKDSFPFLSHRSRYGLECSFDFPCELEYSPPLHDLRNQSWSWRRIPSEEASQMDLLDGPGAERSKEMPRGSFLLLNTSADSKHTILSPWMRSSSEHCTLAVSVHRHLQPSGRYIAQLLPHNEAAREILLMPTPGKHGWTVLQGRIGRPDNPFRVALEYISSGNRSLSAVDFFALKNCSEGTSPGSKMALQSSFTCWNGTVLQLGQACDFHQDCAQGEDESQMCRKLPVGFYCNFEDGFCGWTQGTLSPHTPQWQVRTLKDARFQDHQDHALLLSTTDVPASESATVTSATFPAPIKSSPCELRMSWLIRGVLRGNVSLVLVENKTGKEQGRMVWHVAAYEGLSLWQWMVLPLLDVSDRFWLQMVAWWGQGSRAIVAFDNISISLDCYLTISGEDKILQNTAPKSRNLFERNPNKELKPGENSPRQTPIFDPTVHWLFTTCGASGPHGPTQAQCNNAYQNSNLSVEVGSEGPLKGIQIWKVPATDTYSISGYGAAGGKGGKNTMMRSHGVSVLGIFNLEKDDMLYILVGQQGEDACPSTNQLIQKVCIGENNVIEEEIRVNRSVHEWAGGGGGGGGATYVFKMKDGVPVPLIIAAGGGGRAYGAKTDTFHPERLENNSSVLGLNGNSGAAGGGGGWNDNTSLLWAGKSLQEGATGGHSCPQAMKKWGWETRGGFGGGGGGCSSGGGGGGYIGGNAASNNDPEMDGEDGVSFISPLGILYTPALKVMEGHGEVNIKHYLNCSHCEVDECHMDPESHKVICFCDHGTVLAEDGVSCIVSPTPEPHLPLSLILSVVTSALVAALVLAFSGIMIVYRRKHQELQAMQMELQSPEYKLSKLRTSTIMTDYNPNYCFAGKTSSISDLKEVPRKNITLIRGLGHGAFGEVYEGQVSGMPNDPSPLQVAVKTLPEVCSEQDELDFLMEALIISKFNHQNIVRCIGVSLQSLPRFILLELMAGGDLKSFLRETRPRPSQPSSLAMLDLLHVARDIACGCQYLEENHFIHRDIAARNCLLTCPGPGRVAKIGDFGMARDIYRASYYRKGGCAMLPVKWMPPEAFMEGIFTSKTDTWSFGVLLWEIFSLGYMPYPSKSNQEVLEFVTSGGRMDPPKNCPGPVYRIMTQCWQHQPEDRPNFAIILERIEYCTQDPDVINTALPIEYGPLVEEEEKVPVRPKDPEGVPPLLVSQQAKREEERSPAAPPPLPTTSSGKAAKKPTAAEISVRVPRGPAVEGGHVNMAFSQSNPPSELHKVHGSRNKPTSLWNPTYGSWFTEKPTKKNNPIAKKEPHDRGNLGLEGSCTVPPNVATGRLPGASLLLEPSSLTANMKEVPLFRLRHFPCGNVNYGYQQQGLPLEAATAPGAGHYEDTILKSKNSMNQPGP
T7 sequence (P11362 22-822): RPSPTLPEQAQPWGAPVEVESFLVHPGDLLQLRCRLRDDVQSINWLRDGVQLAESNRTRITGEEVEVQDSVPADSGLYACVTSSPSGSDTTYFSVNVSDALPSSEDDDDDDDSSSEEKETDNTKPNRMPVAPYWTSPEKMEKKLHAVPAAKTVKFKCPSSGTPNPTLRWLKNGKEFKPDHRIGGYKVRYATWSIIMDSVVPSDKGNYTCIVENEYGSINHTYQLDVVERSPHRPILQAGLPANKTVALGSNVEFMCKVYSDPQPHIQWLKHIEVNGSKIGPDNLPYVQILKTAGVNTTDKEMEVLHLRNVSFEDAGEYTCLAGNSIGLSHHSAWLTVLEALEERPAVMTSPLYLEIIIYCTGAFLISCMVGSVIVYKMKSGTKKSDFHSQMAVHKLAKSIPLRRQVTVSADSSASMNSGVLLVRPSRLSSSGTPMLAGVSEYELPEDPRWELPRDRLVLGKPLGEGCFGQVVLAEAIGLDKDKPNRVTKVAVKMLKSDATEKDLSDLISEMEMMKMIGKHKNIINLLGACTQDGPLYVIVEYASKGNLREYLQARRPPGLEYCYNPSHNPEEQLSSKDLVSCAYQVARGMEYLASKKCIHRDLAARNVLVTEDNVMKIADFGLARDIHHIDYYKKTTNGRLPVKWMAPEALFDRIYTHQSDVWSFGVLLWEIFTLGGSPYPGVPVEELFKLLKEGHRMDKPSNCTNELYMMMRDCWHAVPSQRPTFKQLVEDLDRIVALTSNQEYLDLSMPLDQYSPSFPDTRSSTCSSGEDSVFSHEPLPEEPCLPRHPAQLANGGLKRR
T9 sequence (P08922 28-2347 G2032R): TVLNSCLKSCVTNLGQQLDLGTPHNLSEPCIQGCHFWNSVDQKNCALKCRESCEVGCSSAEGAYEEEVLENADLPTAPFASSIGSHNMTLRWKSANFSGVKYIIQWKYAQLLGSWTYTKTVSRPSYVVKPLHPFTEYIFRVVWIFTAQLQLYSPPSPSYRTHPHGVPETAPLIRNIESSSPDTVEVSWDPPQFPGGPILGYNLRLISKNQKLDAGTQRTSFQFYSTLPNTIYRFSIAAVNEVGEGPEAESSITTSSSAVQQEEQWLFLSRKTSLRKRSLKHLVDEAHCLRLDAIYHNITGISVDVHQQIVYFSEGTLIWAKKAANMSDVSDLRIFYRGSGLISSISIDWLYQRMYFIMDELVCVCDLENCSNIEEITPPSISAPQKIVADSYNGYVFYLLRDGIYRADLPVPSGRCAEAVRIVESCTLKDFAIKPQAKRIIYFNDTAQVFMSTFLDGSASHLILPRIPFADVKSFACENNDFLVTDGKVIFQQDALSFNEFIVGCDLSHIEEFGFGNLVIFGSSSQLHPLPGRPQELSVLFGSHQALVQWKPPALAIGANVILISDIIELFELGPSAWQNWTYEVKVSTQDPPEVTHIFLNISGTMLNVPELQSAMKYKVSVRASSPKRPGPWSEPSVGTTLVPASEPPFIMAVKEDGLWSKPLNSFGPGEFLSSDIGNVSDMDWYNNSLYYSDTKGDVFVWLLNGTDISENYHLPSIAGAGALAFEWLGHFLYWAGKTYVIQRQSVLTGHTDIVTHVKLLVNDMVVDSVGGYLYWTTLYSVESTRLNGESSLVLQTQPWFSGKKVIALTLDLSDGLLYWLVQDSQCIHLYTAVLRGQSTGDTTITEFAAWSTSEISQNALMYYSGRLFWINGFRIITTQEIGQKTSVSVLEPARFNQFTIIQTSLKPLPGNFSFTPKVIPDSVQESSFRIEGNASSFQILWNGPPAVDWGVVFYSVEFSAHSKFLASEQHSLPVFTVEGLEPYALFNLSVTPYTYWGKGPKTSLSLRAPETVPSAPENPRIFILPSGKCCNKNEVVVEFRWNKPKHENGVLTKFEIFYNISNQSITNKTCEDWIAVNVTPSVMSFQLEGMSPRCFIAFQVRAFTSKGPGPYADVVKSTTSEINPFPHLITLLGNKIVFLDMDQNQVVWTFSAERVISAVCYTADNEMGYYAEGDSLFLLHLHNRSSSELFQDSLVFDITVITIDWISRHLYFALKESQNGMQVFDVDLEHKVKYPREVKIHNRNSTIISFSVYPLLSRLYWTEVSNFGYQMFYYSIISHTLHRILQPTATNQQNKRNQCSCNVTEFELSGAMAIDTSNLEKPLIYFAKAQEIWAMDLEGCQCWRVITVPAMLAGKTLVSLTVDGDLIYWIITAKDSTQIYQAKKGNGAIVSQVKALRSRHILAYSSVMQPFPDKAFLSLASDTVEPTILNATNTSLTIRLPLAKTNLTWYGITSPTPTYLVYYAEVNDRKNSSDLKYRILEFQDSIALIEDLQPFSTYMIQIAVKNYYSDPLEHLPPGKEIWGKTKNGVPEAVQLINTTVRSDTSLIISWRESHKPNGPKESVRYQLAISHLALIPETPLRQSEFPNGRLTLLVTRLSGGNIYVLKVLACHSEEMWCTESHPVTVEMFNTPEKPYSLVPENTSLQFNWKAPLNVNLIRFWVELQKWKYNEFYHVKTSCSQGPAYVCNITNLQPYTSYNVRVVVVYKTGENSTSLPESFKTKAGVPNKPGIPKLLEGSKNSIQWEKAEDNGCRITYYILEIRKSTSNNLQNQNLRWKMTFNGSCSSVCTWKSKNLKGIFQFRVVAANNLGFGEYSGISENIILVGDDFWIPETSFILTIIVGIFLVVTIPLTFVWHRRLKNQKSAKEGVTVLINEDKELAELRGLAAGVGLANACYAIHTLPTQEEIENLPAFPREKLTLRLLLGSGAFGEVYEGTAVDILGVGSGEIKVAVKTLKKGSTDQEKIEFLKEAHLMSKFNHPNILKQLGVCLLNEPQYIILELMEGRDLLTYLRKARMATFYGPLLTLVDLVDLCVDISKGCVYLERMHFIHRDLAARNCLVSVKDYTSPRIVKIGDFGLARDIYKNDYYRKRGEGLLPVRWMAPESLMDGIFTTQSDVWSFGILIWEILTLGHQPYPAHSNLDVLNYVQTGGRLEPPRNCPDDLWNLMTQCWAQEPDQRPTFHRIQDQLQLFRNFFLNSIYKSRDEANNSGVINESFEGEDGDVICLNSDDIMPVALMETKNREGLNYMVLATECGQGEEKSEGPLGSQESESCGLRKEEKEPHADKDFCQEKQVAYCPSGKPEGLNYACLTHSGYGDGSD
T10 sequence (P08922 28-2347): as the sequence (P08922 28-2347 G2032R) above, with R2005G counted along it
T8 sequence (P11362 22-822 V561M): as the sequence (P11362 22-822) above, with V540M counted along it

IC50 (BaF3 EML4-ALK) [nM] | Compound | IC50 (KG-1 cell (OP2-FGFR1)) [nM] | IC50 (KM12 (TPM3-TRKA)) [nM] | also measured
18.6 | C[C@@H]1COc2cn3ncc4c3nc2N1Cc1cc(F)cc(F)c1O[C@@H](C)CNC4=O [Compound 7, (4R,12S)-8,10-difluoro-4,12-dimethyl-3,4,13,14-tetrahydro-6H-18,1-(metheno)[1,4]oxazino[3,4-i]pyrazolo[4,3-f][1,4,8,10]benzoxatriazacyclotridecin-15(12H)-one] | 145 | 0.2 | IC50 (FGFR2): 14.7 nM; IC50 (ALK (G1202R)): 1.25 nM; IC50 (ALK (L1196M)): 0.358 nM; IC50 (FGFR3): 30.5 nM; IC50 (ALK): 0.853 nM; IC50 (FGFR1): 53 nM; IC50 (FGFR1(V561M)): 137 nM; IC50 (ROS1 (G2032R)): 0.678 nM; IC50 (ROS1): 0.111 nM; IC50 (FGFR4): 88.4 nM
20.2 | C[C@@H]1COc2cn3ncc4c3nc2N1Cc1cc(F)cnc1OC[C@@H](C(F)F)NC4=O [Compound 97, (4R,13S)-13-(difluoromethyl)-8-fluoro-4-methyl-3,4,13,14-tetra-hydro-6H-18,1-(metheno)[1,4]-oxazino[3,4-i]pyrazolo[4,3-f]pyrido[3,2-l][1,4,8,10]oxatriaza-cyclotridecin-15(12H)-one] | 19.9 | < 0.2 | 
4000 | C[C@@H]1COc2cn3ncc4c3nc2N1Cc1cc(F)cnc1O[C@H](CO)CNC4=O [Compound 98, (4R,12S)-8-fluoro-12-(hydroxymethyl)-4-methyl-3,4,13,14-tetrahydro-6H-18,1-(metheno)[1,4]oxazino[3,4-i]pyrazolo[4,3-f]pyrido[3,2-1][1,4,8,10]oxatriazacyclotridecin-15(12H)-one] | 3000 | 13.3 | 
2000 | C[C@@H]1COc2cn3ncc4c3nc2N(Cc2cc(F)cnc2OCCC(C)(C)NC4=O)C1 [Compound 99, (17S)-12-fluoro-6,6,17-trimethyl-5,6,7,8,17,18-hexahydro-4H,14H,16H-1,20-(metheno)[1,4]oxazepino[4,3-e]pyrazolo[3,4-h]pyrido[2,3-b][1,5,7,11]oxatriazacyclotetradecin-4-one] | 1370 | 63.7 | 
2500 | C[C@@H]1COc2cn3ncc4c3nc2N(Cc2cc(F)cnc2OC[C@@H](C)CNC4=O)C1 [Compound 100, (7S,17S)-12-fluoro-7,17-dimethyl-5,6,7,8,17,18-hexahydro-4H,14H,16H-1,20-(metheno)[1,4]oxazepino-[4,3-e]pyrazolo[3,4-h]pyrido-[2,3-b][1,5,7,11]oxatriaza-cyclotetradecin-4-one] | 2800 | 72.8 | 
 | (4R,13R)-8-fluoro-4,13-dimethyl-3,4,13,14-tetrahydro-6H-18,1-(metheno)[1,4]oxazino[3,4-i]pyrazolo[4,3-f]pyrido[3,2-l][1,4,8,10]oxatriazacyclotridecin-15(12H)-one |  |  | ring closure, isolated yield [1]: 86%
 | (5R,13S)-9-fluoro-5,13-dimethyl-4,5,14,15-tetrahydro-3H,7H-19,1-(metheno)[1,4]oxazepino[3,4-i]pyrazolo[4,3-f]pyrido[3,2-l][1,4,8,10]oxatriazacyclotridecin-16(13H)-one |  |  | ring closure, isolated yield [1]: 79%
